Data from patent US6346642B1, “Mixed crystals comprising aspartame and aspartame derivative and process for producing the same” (Ajinomoto Co., Inc., priority 1997, dated 2002).
Peptide text beside a SMILES is read from it.

Columns and labels:
[1] = Properties in quality of sweetness compared to sucrose (inventors' findings)
Source text: It is strong in astringency (astringent taste) and badly-balanced for quality of sweetness as compared to sucrose. On the other hand, with respect to APM, its properties for quality of sweetness is weak in early taste, and strong in later taste, although they are not so bad as those in N-(3,3-dimethylbuty)-APM. Therefore, any one of both compounds has the properties for quality of sweetness which is weak in early taste, and strong in later taste, and thus is out of quality of sweetness, taking into account the fact that sucrose is natural in sweetness.

[2] = relative to sucrose, by weight ratio; cited from earlier work

SMILES: COC(=O)[C@H](Cc1ccccc1)NC(=O)[C@@H](N)CC(=O)O [APM, aspartame] (H-Asp-Phe-OMe)
- early taste (tastes sweet as early as sucrose) ([1]; quality of sweetness): weak
- later taste (tastes sweet later than sucrose) ([1]; quality of sweetness): strong

SMILES: COC(=O)[C@H](Cc1ccccc1)NC(=O)[C@H](CC(=O)O)NCCC(C)(C)C [N-(3,3-dimethylbutyl)-APM, N-[N-(3,3-dimethylbutyl)-L-α-aspartyl]-L-phenylalanine methyl ester]
- quality of sweetness (balance) [1]: badly-balanced
- astringency (astringent taste) ([1]; quality of sweetness): strong
- early taste (tastes sweet as early as sucrose) ([1]; quality of sweetness): extremely weak
- later taste (tastes sweet later than sucrose) ([1]; quality of sweetness): extremely strong
- sweetening potency [2]: 10,000 times by weight ratio that of
